Assay: xn = mol fraction of the nth substance listed
Conditions: 298 K, Liquid

ClCCCCCCCl [1,6-dichlorohexane] + CC(=O)N(C)C
mass density [kg/m3]
Conditions	x2 = 0.1002	x2 = 0.1985	x2 = 0.3002	x2 = 0.404	x2 = 0.4943	x2 = 0.6007	x2 = 0.7006	x2 = 0.8012	x2 = 0.8994
100 kPa	1054.5	1045.2	1034.5	1023.1	1012.3	998.8	985.3	970.4	954.6
500 kPa	1054.7	1045.5	1034.8	1023.4	1012.5	999	985.6	970.7	954.8
1000 kPa	1055.1	1045.9	1035.2	1023.7	1012.9	999.3	985.9	971	955.1
1500 kPa	1055.5	1046.2	1035.6	1024.1	1013.3	999.6	986.2	971.3	955.4
2000 kPa	1055.8	1046.6	1035.9	1024.4	1013.6	1000	986.5	971.6	955.7
2500 kPa	1056.2	1046.9	1036.2	1024.8	1013.9	1000.3	987	972	956.1
2900 kPa	–	–	–	–	1014.3	–	–	–	–
3000 kPa	1056.5	1047.3	1036.6	1025.1	–	1000.6	987.2	972.3	956.4
3500 kPa	1056.9	1047.6	1036.8	1025.4	1014.6	1001	987.6	972.6	956.6
4000 kPa	1057.2	1047.9	1037.2	1025.7	1014.9	1001.4	987.9	972.9	957
4500 kPa	1057.6	1048.3	1037.5	1026.1	1015.3	1001.6	988.2	973.2	957.2
5000 kPa	1057.9	1048.6	1037.9	1026.5	1015.6	1002	988.5	973.5	957.6
5500 kPa	1058.2	1049	1038.2	1026.8	1015.9	1002.3	988.9	973.8	957.9
6000 kPa	1058.6	1049.3	1038.5	1027.1	1016.3	1002.6	989.1	974.2	958.2
6500 kPa	1058.9	1049.6	1038.9	1027.4	1016.6	1002.9	989.5	974.4	958.5
7000 kPa	1059.3	1049.9	1039.2	1027.7	1016.9	1003.3	989.7	974.7	958.8
7500 kPa	1059.6	1050.2	1039.5	1028.1	1017.2	1003.6	990.1	975	959
8000 kPa	1060	1050.6	1039.9	1028.4	1017.4	1003.9	990.4	975.4	959.4
8500 kPa	1060.3	1050.9	1040.2	1028.7	1017.8	1004.2	990.6	975.7	959.7
9000 kPa	1060.6	1051.2	1040.6	1029.1	1018.1	1004.5	991	976	960
9500 kPa	1061	1051.6	1040.9	1029.4	1018.5	1004.8	991.2	976.3	960.3
10000 kPa	1061.4	1052	1041.3	1029.8	1018.9	1005.2	991.6	976.7	960.6
10500 kPa	1061.7	1052.3	1041.6	1030.2	1019.2	1005.5	992	977	960.9
11000 kPa	1062	1052.6	1041.9	1030.4	1019.5	1005.8	992.3	–	961.2
11400 kPa	–	–	–	–	–	–	–	–	961.5
11500 kPa	1062.3	1052.9	1042.2	1030.7	1019.9	1006.1	992.6	977.6	–
12000 kPa	1062.7	1053.3	1042.5	1031	1020.2	1006.5	992.9	977.9	961.8
12500 kPa	1063	1053.6	1042.9	1031.4	1020.5	1006.7	993.2	978.2	962.1
13000 kPa	1063.4	1054	1043.2	1031.7	1020.8	1007	993.5	978.5	962.4
13500 kPa	1063.7	1054.3	1043.5	1032	1021.1	1007.4	993.8	978.7	962.6
14000 kPa	1063.9	1054.7	1043.8	1032.4	1021.4	1007.6	994.1	979	963
14500 kPa	1064.3	1055	1044.2	1032.6	1021.7	1008	994.4	979.4	963.2
15000 kPa	1064.6	1055.3	1044.5	1032.9	1022	1008.2	994.7	979.6	963.4
15500 kPa	1064.9	1055.6	1044.8	1033.3	1022.3	1008.6	995	980	963.8
16000 kPa	1065.3	1055.9	1045.1	1033.6	1022.6	1009	995.3	980.2	964
16400 kPa	–	–	–	–	–	–	–	980.5	–
16500 kPa	1065.6	1056.2	1045.3	1033.9	1022.9	1009.3	995.6	–	964.3
17000 kPa	1065.9	1056.5	1045.7	1034.2	1023.2	1009.6	995.9	980.8	964.6
17400 kPa	–	–	–	–	–	–	996.2	–	–
17500 kPa	1066.2	1056.8	1046	1034.6	1023.5	1009.9	–	981.1	964.9
18000 kPa	1066.5	1057.1	1046.3	1034.9	1023.8	1010.2	996.5	981.4	965.2
18500 kPa	1066.8	1057.5	1046.7	1035.2	1024	1010.5	996.9	981.6	965.4
19000 kPa	1067.2	1057.8	1047	1035.5	1024.3	1010.9	997.1	982	965.7
19500 kPa	1067.5	1058.1	1047.3	1035.9	1024.7	1011.2	997.4	982.3	966
19900 kPa	–	–	–	–	–	–	997.6	–	–
20000 kPa	1067.9	1058.4	1047.7	1036.2	1025	1011.5	–	982.6	966.4

Reference: the NIST ThermoML archive (doi:10.1021/je700339f)
